Data reported in patent US20250230165A1, “HETEROCYCLIC COMPOUNDS FOR USE IN THE TREATMENT OF CANCER” (ARTIOS PHARMA LIMITED, priority 2021, published 2025).

Biological target: T1, Human Polθ polymerase domain (aa1820-2590) (Homo sapiens, UniProt O75417)
T1 construct: Human Polθ polymerase domain (aa1820-2590) was expressed in E. coli; made in house; host or cells: E. coli
T1 sequence (O75417 1820-2590): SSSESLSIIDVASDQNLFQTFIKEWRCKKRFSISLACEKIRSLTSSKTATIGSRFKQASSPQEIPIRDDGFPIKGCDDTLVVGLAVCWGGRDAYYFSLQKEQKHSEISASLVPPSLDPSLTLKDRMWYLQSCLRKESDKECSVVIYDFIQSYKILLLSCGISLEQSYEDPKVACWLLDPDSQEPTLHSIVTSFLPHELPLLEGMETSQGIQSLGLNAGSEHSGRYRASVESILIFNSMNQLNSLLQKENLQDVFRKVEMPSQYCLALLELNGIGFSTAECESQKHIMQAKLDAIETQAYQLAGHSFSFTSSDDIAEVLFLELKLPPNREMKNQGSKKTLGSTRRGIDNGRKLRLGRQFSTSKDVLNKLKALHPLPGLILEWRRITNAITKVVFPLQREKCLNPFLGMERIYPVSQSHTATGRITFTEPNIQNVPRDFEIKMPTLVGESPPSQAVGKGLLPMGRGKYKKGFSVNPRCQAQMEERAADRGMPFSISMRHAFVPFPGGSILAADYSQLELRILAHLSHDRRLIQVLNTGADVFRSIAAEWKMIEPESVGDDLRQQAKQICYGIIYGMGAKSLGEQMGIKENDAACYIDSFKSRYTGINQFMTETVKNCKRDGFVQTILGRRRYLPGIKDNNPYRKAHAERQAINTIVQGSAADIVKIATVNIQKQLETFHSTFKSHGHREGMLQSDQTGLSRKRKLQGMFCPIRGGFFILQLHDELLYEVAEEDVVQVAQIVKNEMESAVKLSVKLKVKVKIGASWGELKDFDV
Assay: Polθ Polymerase Domain Kinact/KI Assay (PicoGreen)
Format: biochemical
Settings: 0.8 nM Polθ, 100 nM DNA substrate, kobs vs [I] fit for 2-step covalent inhibitor
Method in brief: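 PicoGreen fluorescence read-out of primer extension; progress curves per inhibitor concentration fitted for kobs, then kobs vs [I] fitted to a two-step covalent model to give Kinact and KI. Conditions: 0.8 nM enzyme, 100 nM DNA substrate, […].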

Row | SMILES | Kinact/Kl [M⁻¹ s⁻¹]
1 | C=CC(=O)N1CCc2cc(CN3C[C@H]4CC(=O)N(c5cc(C(F)(F)F)cc(C)n5)[C@@H]4C(=O)N(C)c4cccc(F)c43)ccc2C1 [Example 131, (3aR,11aS)-5-((2-acryloyl-1,2,3,4-tetrahydoisoquinolin-6-yl)methyl)-6-fluoro-10-methyl-1-(6-methyl-4-(trifluoromethyl)pyridin-2-yl)-1,3a,4,5,10,11a-hexahydro-2H-benzo[b]pyrrolo[2,3-f][1,4]diazocine-2,11(3H)-dione] | 530000
2 | C=CC(=O)N1CCn2cc(CN3C[C@H]4CC(=O)N(c5cc(C(F)(F)F)cc(C)n5)[C@@H]4C(=O)N(C)c4cccc(F)c43)nc2C1 [Example 132, (3aR,11aS)-5-((7-acryloyl-5,6,7,8-tetrahydroimidazo[1,2-a]pyrazin-2-yl)methyl)-6-fluoro-10-methyl-1-(6-methyl-4-(trifluoromethyl)pyridin-2-yl)-1,3a,4,5,10,11a-hexahydro-2H-benzo[b]pyrrolo[2,3-f][1,4]diazocine-2,11(3H)-dione] | 1.86e+06
3 | C=CC(=O)N1CCn2nc(CN3C[C@H]4CC(=O)N(c5cc(C(F)(F)F)cc(C)n5)[C@@H]4C(=O)N(C)c4cccc(F)c43)nc2C1 [Example 133, (3aR,11aS)-5-((7-acryloyl-5,6,7,8-tetrahydro-[1,2,4]triazolo[1,5-a]pyrazin-2-yl)methyl)-6-fluoro-10-methyl-1-(6-methyl-4-(trifluoromethyl)pyridin-2-yl)-1,3a,4,5,10,11a-hexahydro-2H-benzo[b]pyrrolo[2,3-f][1,4]diazocine-2,11(3H)-dione] | 1.7e+06
4 | C=CC(=O)N1CCn2c(nnc2CN2C[C@H]3CC(=O)N(c4cc(C(F)(F)F)cc(C)n4)[C@@H]3C(=O)N(C)c3cccc(F)c32)C1 [Example 134, (3aR,11aS)-5-((7-acryloyl-5,6,7,8-tetrahydro-[1,2,4]triazolo[4,3-a]pyrazin-3-yl)methyl)-6-fluoro-10-methyl-1-(6-methyl-4-(trifluoromethyl)pyridin-2-yl)-1,3a,4,5,10,11a-hexahydro-2H-benzo[b]pyrrolo[2,3-f][1,4]diazocine-2,11(3H)-dione] | 62000
5 | C=CC(=O)N1CCC(n2cnc(CN3C[C@H]4CC(=O)N(c5cc(C(F)(F)F)cc(C)n5)[C@@H]4C(=O)N(C)c4cccc(Cl)c43)n2)CC1 [Example 135, (3aR,11aS)-5-((1-(1-acryloylpiperidin-4-yl)-1H-1,2,4-triazol-3-yl)methyl)-6-chloro-10-methyl-1-(6-methyl-4-(trifluoromethyl)pyridin-2-yl)-1,3a,4,5,10,11a-hexahydro-2H-benzo[b]pyrrolo[2,3-f][1,4]diazocine-2,11(3H)-dione] | 2e+06
6 | C=CC(=O)N1CCn2cc(CN3C[C@H]4CC(=O)N(c5cc(C(F)(F)F)cc(C)n5)[C@@H]4C(=O)N(C)c4cccc(Cl)c43)nc2C1 [Example 136, (3aR,11aS)-5-((7-acryloyl-5,6,7,8-tetrahydroimidazo[1,2-a]pyrazin-2-yl)methyl)-6-chloro-10-methyl-1-(6-methyl-4-(trifluoromethyl)pyridin-2-yl)-1,3a,4,5,10,11a-hexahydro-2H-benzo[b]pyrrolo[2,1-f][1,4]diazocine-2,11(3H)-dione] | 6.47e+06
7 | C=CC(=O)N1CC(C)(N2CCC(CN3C[C@H]4CC(=O)N(c5cc(C(F)(F)F)cc(C)n5)[C@@H]4C(=O)N(C)c4cccc(Cl)c43)CC2)C1 [Example 137, (3aR,11aS)-5-((1-(1-acryloyl-3-methylazetidin-3-yl)piperidin-4-yl)methyl)-6-chloro-10-methyl-1-(6-methyl-4-(trifluoromethyl)pyridin-2-yl)-1,3a,4,5,10,11a-hexahydro-2H-benzo[b]pyrrolo[2,3-f][1,4]diazocine-2,11(3H)-dione] | 980000
8 | C=CC(=O)N1CC(N(C)CCCN2C[C@H]3CC(=O)N(c4cc(C(F)(F)F)cc(C)n4)[C@@H]3C(=O)N(C)c3cccc(Cl)c32)C1 [Example 138, (3aR,11aS)-5-(3-((1-acryloylazetidin-3-yl)(methyl)amino)propyl)-6-chloro-10-methyl-1-(6-methyl-4-(trifluoromethyl)pyridin-2-yl)-1,3a,4,5,10,11a-hexahydro-2H-benzo[b]pyrrolo[2,3-f][1,4]diazocine-2,11(3H)-dione] | 1.08e+06
9 | C=CC(=O)N1CC(n2cnc(CN3C[C@H]4CC(=O)N(c5cc(C(F)(F)F)cc(C)n5)[C@@H]4C(=O)N(C)c4cccc(C)c43)n2)C1 [Example 139, (3aR,11aS)-5-((1-(1-acryloylazetidin-3-yl)-1H-1,2,4-triazol-3-yl)methyl)-6,10-dimethyl-1-(6-methyl-4-(trifluoromethyl)pyridin-2-yl)-1,3a,4,5,10,11a-hexahydro-2H-benzo[b]pyrrolo[2,3-f][1,4]diazocine-2,11(3H)-dione] | 2.37e+06
10 | Cc1cc(C(F)(F)F)cc(N2C(=O)C[C@@H]3CN(Cc4ccn(C5CN(C(=O)/C=C/CN(C)C)C5)n4)c4c(F)cccc4N(C)C(=O)[C@H]32)n1 [Example 145, (3aR, 11aS)-5-((1-(1-((E)-4-(dimethylamino)but-2-enoyl)azetidin-3-yl)-1H-pyrazol-3-yl)methyl)-6-fluoro-10-methyl-1-(6-methyl-4-(trifluoromethyl)pyridin-2-yl)-1,3a,4,5,10,11a-hexahydro-2H-benzo[b]pyrrolo[2,3-f][1,4]diazocine-2,11(3H)-dione] | 1.34e+06
11 | Cc1cc(C(F)(F)F)cc(N2C(=O)C[C@@H]3CN(Cc4ccc(C5CN(C(=O)/C=C/CN(C)C)C5)cc4)c4c(F)cccc4N(C)C(=O)[C@H]32)n1 [Example 146, (3aR,11aS)-5-(4-(1-((E)-4-(dimethylamino)but-2-enoyl)azetidin-3-yl)benzyl)-6-fluoro-10-methyl-1-(6-methyl-4-(trifluoromethyl)pyridin-2-yl)-1,3a,4,5,10,11a-hexahydro-2H-benzo[b]pyrrolo[2,3-f][1,4]diazocine-2,11(3H)-dione] | 1.68e+06
12 | Cc1cc(C(F)(F)F)cc(N2C(=O)C[C@@H]3CN(Cc4cccc(C5CN(C(=O)/C=C/CN(C)C)C5)c4)c4c(F)cccc4N(C)C(=O)[C@H]32)n1 [Example 147, (3aR,11aS)-5-(3-(1-((E)-4-(dimethylamino)but-2-enoyl)azetidin-3-yl)benzyl)-6-fluoro-10-methyl-1-(6-methyl-4-(trifluoromethyl)pyridin-2-yl)-1,3a,4,5,10,11a-hexahydro-2H-benzo[b]pyrrolo[2,3-f][1,4]diazocine-2,11(3H)-dione] | 610000
13 | Cc1cc(C(F)(F)F)cc(N2C(=O)C[C@@H]3CN(Cc4ccc5c(c4)CN(C(=O)/C=C/CN(C)C)C5)c4c(F)cccc4N(C)C(=O)[C@H]32)n1 [Example 148, (3aR,11aS)-5-((2-((E)-4-(dimethylamino)but-2-enoyl)isoindolin-5-yl)methyl)-6-fluoro-10-methyl-1-(6-methyl-4-(trifluoromethyl)pyridin-2-yl)-1,3a,4,5,10,11a-hexahydro-2H-benzo[b]pyrrolo[2,3-f][1,4]diazocine-2,11(3H)-dione] | 1.65e+06
